Measured values: ChEMBL document CHEMBL1201862, “PubChem BioAssay data set” (2004)
Values belong to the compound of their own block, whether it stands above or below them. The source made the active and inactive calls.

Key:
Assay type in all cases: functional
[1] = target: T1, Insulin-degrading enzyme (Homo sapiens, UniProt P14735); experiment: activators of endogenous IDE in HEK cells, dose response, cell-based, fluorescence polarization (AID 588439)
T1 sequence (P14735 whole entry): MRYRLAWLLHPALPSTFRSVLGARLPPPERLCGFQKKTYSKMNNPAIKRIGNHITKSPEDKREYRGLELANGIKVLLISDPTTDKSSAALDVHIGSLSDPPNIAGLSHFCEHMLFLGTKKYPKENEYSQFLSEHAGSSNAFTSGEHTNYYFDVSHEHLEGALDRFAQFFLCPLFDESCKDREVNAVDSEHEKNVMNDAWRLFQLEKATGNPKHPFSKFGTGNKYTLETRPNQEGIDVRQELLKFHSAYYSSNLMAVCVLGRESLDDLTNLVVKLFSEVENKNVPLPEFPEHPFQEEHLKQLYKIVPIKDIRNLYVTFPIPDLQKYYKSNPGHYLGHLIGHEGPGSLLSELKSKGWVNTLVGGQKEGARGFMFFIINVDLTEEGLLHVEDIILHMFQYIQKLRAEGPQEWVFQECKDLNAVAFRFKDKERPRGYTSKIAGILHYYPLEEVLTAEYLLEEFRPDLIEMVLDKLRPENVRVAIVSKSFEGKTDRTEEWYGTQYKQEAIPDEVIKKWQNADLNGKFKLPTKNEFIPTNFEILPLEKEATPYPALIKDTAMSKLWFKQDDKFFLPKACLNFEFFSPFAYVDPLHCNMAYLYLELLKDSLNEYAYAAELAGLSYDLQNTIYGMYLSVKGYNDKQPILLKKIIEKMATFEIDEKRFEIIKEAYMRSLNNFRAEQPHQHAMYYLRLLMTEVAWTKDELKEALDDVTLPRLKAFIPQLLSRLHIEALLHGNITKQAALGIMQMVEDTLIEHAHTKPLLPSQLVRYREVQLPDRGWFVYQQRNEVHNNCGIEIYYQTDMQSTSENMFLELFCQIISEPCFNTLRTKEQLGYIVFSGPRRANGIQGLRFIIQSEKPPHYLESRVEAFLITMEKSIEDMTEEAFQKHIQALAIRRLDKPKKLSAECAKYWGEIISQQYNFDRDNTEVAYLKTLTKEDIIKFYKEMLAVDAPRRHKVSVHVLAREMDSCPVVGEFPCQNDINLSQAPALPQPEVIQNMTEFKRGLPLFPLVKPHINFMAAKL

[2] = target: Leucine-rich repeat serine/threonine-protein kinase 2 (Homo sapiens, UniProt Q5S007);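 also: value from a broad kinome-wide panel profiling study in which LRRK2 was one of the kinases tested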
[3] = target: Serine/threonine-protein kinase PAK 1 (Homo sapiens, UniProt Q13153)
[4] = target: Serine/threonine-protein kinase 3 (Homo sapiens, UniProt Q13188);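 also: measured as one member of a kinome-wide kinase panel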
[5] = target: Serine/threonine-protein kinase 17A (Homo sapiens, UniProt Q9UEE5)
[6] = target: Calcium/calmodulin-dependent protein kinase type II subunit delta (Homo sapiens, UniProt Q13557)
[7] = target: Phosphorylase b kinase gamma catalytic chain, liver/testis isoform (Homo sapiens, UniProt P15735);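 also: PHKG2 measured as one member of a kinome-wide kinase panel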
[8] = target: Tyrosine-protein kinase Blk (Homo sapiens, UniProt P51451);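 also: obtained as one member of a kinome-wide kinase assay panel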
[9] = target: Serine/threonine-protein kinase pim-3 (Homo sapiens, UniProt Q86V86);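 also: value obtained as one member of a broad kinase panel profiling effort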
[10] = target: Lymphokine-activated killer T-cell-originated protein kinase (Homo sapiens, UniProt Q96KB5);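 also: value comes from a kinase panel screen in which TOPK was one of the panel members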
[11] = target: T2, Sentrin-specific protease 8 (Homo sapiens, UniProt Q96LD8);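 also: luminescence read-out of SENP8 inhibition, dose-response confirmation following an ultra-high-throughput screen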
T2 sequence (Q96LD8 whole entry): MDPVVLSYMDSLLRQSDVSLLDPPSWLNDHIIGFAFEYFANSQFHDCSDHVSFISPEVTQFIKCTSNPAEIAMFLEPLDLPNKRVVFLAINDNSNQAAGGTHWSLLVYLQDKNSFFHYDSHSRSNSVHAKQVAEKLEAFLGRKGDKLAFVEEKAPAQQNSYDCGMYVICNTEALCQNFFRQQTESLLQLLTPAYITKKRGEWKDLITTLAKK

[12] = target: T3, Sentrin-specific protease 6 (Homo sapiens, UniProt Q9GZR1);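 also: Luminescence-based dose-response confirmatory assay of SENP6 inhibition, following up an ultra-high-throughput screen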
T3 sequence (Q9GZR1 whole entry): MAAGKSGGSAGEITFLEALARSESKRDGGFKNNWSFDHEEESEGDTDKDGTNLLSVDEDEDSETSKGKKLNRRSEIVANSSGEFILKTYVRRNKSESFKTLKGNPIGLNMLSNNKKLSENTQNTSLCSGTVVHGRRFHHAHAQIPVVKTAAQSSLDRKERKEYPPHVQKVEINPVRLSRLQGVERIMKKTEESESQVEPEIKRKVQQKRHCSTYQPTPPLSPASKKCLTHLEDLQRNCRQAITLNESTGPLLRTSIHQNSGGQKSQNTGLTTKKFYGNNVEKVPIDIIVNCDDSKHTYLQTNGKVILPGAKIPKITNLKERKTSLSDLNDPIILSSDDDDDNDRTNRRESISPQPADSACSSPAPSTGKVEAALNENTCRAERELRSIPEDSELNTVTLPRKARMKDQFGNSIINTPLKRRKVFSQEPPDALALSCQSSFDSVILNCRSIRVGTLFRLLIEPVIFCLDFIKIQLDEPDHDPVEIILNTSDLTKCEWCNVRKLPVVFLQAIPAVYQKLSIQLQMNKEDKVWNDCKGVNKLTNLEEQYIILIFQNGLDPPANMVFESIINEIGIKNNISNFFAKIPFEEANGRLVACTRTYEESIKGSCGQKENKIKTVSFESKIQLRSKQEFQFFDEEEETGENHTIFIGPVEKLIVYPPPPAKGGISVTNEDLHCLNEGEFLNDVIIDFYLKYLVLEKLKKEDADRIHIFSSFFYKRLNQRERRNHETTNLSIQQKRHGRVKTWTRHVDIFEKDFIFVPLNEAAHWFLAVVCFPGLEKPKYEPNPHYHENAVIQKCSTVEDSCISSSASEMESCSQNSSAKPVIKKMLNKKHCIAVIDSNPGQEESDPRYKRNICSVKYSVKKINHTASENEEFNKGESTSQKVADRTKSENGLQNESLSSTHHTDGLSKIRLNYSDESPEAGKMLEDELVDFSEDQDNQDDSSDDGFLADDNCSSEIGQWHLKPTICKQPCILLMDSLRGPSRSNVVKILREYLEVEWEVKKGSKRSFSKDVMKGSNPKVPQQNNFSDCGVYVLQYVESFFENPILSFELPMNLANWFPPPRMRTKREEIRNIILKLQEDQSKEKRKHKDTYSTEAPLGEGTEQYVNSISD

Sequence of Calcium/calmodulin-dependent protein kinase type II subunit delta (Q13557 whole entry, canonical isoform): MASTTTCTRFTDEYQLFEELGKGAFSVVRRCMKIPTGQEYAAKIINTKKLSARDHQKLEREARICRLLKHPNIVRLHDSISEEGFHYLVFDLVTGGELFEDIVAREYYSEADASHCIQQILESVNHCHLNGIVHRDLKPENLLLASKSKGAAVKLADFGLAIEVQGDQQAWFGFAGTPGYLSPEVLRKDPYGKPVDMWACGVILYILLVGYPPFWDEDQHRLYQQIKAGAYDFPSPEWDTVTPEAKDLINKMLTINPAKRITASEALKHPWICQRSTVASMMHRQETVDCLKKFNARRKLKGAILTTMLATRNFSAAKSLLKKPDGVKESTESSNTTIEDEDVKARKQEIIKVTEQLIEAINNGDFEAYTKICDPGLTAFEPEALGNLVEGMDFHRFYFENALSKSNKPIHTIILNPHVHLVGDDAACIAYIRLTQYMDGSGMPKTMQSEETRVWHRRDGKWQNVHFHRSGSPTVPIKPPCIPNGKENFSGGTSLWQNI
Sequence of Serine/threonine-protein kinase PAK 1 (Q13153 whole entry): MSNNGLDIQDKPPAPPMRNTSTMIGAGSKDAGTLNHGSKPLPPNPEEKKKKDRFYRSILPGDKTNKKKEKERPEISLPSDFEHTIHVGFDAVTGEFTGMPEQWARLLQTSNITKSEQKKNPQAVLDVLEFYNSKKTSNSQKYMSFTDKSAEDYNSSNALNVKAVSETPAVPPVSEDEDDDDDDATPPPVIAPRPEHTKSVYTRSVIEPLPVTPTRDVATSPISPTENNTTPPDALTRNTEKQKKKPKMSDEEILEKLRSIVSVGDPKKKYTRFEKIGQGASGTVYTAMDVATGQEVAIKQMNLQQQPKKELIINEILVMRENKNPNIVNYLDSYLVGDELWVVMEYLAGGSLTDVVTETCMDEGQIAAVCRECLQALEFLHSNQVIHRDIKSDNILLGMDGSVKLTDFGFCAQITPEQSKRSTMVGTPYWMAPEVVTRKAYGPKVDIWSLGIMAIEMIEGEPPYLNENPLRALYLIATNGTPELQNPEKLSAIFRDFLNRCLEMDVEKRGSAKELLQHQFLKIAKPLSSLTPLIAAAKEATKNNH
Sequence of Serine/threonine-protein kinase 3 (Q13188 whole entry): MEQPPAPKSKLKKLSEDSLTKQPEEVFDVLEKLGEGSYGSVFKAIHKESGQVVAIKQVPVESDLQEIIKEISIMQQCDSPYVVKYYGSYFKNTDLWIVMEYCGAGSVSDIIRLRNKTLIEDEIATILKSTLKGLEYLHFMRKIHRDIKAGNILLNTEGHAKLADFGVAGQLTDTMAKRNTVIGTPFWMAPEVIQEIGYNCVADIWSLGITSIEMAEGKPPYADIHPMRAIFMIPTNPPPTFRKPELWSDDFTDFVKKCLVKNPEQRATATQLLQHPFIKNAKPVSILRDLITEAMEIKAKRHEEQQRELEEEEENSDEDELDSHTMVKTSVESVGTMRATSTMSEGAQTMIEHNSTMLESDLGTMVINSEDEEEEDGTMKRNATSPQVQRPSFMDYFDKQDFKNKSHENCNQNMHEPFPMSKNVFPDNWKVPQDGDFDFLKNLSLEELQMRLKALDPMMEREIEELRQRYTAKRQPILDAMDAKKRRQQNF
Sequence of Phosphorylase b kinase gamma catalytic chain, liver/testis isoform (P15735 whole entry, canonical isoform): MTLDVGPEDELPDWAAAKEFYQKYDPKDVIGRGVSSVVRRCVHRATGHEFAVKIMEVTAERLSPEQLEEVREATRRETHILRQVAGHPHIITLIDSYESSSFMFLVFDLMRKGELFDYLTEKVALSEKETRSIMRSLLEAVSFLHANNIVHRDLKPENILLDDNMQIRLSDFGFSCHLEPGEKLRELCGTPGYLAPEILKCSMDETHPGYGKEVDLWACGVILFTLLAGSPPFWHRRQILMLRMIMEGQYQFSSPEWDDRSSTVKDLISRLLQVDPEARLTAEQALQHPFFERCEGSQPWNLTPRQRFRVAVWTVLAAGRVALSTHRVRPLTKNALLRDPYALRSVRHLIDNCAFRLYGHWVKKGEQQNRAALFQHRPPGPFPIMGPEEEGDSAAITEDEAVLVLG
Sequence of Serine/threonine-protein kinase 17A (Q9UEE5 whole entry): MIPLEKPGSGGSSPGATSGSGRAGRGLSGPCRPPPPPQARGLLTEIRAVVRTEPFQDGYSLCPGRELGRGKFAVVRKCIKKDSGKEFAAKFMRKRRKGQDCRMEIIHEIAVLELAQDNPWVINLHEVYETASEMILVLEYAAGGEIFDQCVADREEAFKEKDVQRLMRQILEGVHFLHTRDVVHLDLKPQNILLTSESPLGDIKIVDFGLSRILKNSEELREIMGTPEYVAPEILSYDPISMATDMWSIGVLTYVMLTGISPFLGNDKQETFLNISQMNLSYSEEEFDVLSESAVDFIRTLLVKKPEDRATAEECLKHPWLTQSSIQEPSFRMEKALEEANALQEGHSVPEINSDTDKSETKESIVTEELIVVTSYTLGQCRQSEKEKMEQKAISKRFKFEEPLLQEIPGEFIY
Sequence of Tyrosine-protein kinase Blk (P51451 whole entry): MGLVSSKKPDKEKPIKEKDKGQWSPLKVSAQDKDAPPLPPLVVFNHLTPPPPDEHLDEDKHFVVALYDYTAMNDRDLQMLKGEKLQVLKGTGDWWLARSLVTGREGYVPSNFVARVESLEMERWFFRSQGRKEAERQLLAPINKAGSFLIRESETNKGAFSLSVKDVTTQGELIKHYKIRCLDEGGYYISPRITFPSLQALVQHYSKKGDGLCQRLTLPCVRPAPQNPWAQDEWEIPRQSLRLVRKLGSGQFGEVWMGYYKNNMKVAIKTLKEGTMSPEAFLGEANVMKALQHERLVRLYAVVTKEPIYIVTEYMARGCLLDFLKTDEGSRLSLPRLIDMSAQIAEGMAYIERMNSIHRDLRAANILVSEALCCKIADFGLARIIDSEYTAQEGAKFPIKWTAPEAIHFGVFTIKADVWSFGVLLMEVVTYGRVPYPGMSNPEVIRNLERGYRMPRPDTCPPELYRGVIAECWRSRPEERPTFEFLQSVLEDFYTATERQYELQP
Sequence of Lymphokine-activated killer T-cell-originated protein kinase (Q96KB5 whole entry): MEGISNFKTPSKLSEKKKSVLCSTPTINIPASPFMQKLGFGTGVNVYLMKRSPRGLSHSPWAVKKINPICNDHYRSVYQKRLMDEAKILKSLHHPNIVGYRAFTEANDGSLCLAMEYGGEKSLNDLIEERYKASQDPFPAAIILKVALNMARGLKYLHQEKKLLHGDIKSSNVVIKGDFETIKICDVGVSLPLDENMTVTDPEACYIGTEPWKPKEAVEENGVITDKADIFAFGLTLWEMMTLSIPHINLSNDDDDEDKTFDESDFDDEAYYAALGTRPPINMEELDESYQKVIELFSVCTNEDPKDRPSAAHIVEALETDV

Structure (SMILES): CCN(CC)CCCC(C)n1c2nc(=O)[nH]c(=O)c-2nc2cc(Cl)ccc21 (stereo not drawn)
EC50 [1]: > 54700 nM (inactive)

Ki [2]: > 2510 nM (inactive)
Structure (SMILES): COc1cccc(CNC(=O)c2cnc(-c3ccncc3)nc2)c1

Ki [3]: 1260 nM (active)
pKi [3]: 5.9
Ki [4]: 50.1 nM (active)
pKi [4]: 7.3
Ki [5]: 39.8 nM (active)
pKi [5]: 7.4
Ki [6]: 63.1 nM (active)
pKi [6]: 7.2
Ki [7]: 200 nM (active)
pKi [7]: 6.7
Ki [8]: > 1580 nM (inactive)
Ki [9]: 3160 nM (active)
pKi [9]: 5.5
Structure (SMILES): OC1CCC(Nc2nc(Cl)cc(-c3c[nH]c4ncccc34)n2)CC1 (stereo not drawn)
Ki [10]: 3160 nM (active)

IC50 [12]: 3820 nM (active)
Structure (SMILES): O=C(COC(=O)c1ccc([N+](=O)[O-])s1)Nc1ccc(F)cc1
IC50 [11]: 4050 nM (active)
